Source: ChEMBL document CHEMBL1201862, “PubChem BioAssay data set” (2004)
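Grown in 96-well plates, cells were treated for 48 hours with each compound at five concentrations. Insufficient inhibition: endpoint recorded as highest concentration tested. GI50 marks 50% less growth.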 The source made the active and inactive calls. No stated cut-off is given here; in the data, active = GI50 up to about 1.1 µM and inactive = higher.

Columns and labels:
Assay in all cases: DTP human tumour cell line panel, 48 h
A498 = tested on: A498
A549 = tested on: A549
ACHN = tested on: ACHN
COLO 205 = tested on: COLO 205
HCT-116 = tested on: HCT-116
HOP-62 = tested on: HOP-62
IGROV-1 = tested on: IGROV-1
M14 = tested on: M14
MCF7 = tested on: MCF7
MOLT-4 = tested on: MOLT-4
NCI-H226 = tested on: NCI-H226
OVCAR-3 = tested on: OVCAR-3
PC-3 = tested on: PC-3
SF-268 = tested on: SF-268
SF-295 = tested on: SF-295
SF-539 = tested on: SF-539
SK-MEL-5 = tested on: SK-MEL-5
SK-OV-3 = tested on: SK-OV-3
SN12C = tested on: SN12C

| SMILES | GI50 (A498) | GI50 (A549) | GI50 (ACHN) | GI50 (COLO 205) | GI50 (HCT-116) | GI50 (HOP-62) | GI50 (IGROV-1) | GI50 (M14) | GI50 (MCF7) | GI50 (MOLT-4) | GI50 (NCI-H226) | GI50 (OVCAR-3) | GI50 (PC-3) | GI50 (SF-268) | GI50 (SF-295) | GI50 (SF-539) | GI50 (SK-MEL-5) | GI50 (SK-OV-3) | GI50 (SN12C) |
| --- | --- | --- | --- | --- | --- | --- | --- | --- | --- | --- | --- | --- | --- | --- | --- | --- | --- | --- | --- |
| O=C(NC(Nc1ccc(F)c(Cl)c1)(C(F)(F)F)C(F)(F)F)C(C(F)(F)F)C(F)(F)F | 44.3 µM (inactive) | 27.2 µM (inactive) | 13.5 µM (inactive) | 28.5 µM (inactive) | 16 µM (inactive) | > 100 µM (inactive) | 13.4 µM (inactive) | 21.9 µM (inactive) | 33 µM (inactive) | 15 µM (inactive) | 24.1 µM (inactive) | 26.9 µM (inactive) | 24.8 µM (inactive) | 29.1 µM (inactive) | 36.5 µM (inactive) | 22.6 µM (inactive) | 21.4 µM (inactive) | 52.7 µM (inactive) | 32.5 µM (inactive) |
| CC1=C(C)C(=O)C(C2=C(C3=CC(=O)C(C)=C(C)C3=O)C(=O)C(C)=C(C)C2=O)=CC1=O | 14.3 µM (inactive) | 30.3 µM (inactive) | 5.79 µM (inactive) | 2.89 µM (inactive) | 5.45 µM (inactive) | 18.7 µM (inactive) | 10.9 µM (inactive) | 10 µM (inactive) | 2.67 µM (inactive) | 0.697 µM (active) | 11 µM (inactive) |  | 4.62 µM (inactive) | 12.6 µM (inactive) | 17.7 µM (inactive) | 2.17 µM (inactive) | 2.15 µM (inactive) | 17.4 µM (inactive) | 13.9 µM (inactive) |
| CC1(C)OC1CC/C(=C/CBr)CBr (stereo not given) | 21.4 µM (inactive) | 21.3 µM (inactive) | 16.9 µM (inactive) | 15.9 µM (inactive) | 18.1 µM (inactive) | 17.3 µM (inactive) | 13.8 µM (inactive) | 19.8 µM (inactive) | 15 µM (inactive) | 16.7 µM (inactive) | 21.7 µM (inactive) | 18.7 µM (inactive) | 15.6 µM (inactive) | 15.5 µM (inactive) | 14.1 µM (inactive) | 18.1 µM (inactive) | 14.1 µM (inactive) | 19 µM (inactive) | 15.6 µM (inactive) |
| O=S1(=O)NC2CCC3NS(=O)(=O)NC4CCC(N1)N4S(=O)(=O)N23 (stereo not given) | > 100 µM (inactive) | > 100 µM (inactive) | > 100 µM (inactive) | > 100 µM (inactive) | > 100 µM (inactive) | > 100 µM (inactive) | > 100 µM (inactive) | > 100 µM (inactive) | > 100 µM (inactive) |  | > 100 µM (inactive) | > 100 µM (inactive) | > 100 µM (inactive) | > 100 µM (inactive) | > 100 µM (inactive) | > 100 µM (inactive) | > 100 µM (inactive) | > 100 µM (inactive) | > 100 µM (inactive) |
| COc1cccc(NC(=O)c2c(SC)c(C#N)c(=O)n(N)c2N)c1 | 79.3 µM (inactive) | 57.7 µM (inactive) | > 100 µM (inactive) | > 100 µM (inactive) | 35.2 µM (inactive) | 50.9 µM (inactive) | > 100 µM (inactive) | 30.6 µM (inactive) | > 100 µM (inactive) | 41.8 µM (inactive) | > 100 µM (inactive) |  | 49.8 µM (inactive) | 72.1 µM (inactive) | 34.2 µM (inactive) | 66.4 µM (inactive) | 64.9 µM (inactive) | 44.5 µM (inactive) | > 100 µM (inactive) |
| NC(Cc1ccccc1)C(=O)O (stereo not drawn) [DL-PHENYLALANINE] | > 100 µM (inactive) | > 100 µM (inactive) | > 100 µM (inactive) | > 100 µM (inactive) | > 100 µM (inactive) | > 100 µM (inactive) | > 100 µM (inactive) | > 100 µM (inactive) | > 100 µM (inactive) | > 100 µM (inactive) | > 100 µM (inactive) | > 100 µM (inactive) | > 100 µM (inactive) | > 100 µM (inactive) | > 100 µM (inactive) | > 100 µM (inactive) | > 100 µM (inactive) | > 100 µM (inactive) | > 100 µM (inactive) |
| C[C@@H]1CCC[C@]2(C)O[C@H]2CC[C@@](C)(O)[C@@H]2CC3=C(CO)C(=O)O[C@H]3[C@H]1O2 | > 50 µM (inactive) | > 50 µM (inactive) | > 50 µM (inactive) | > 50 µM (inactive) | > 50 µM (inactive) | > 50 µM (inactive) | 25.5 µM (inactive) | > 50 µM (inactive) | > 50 µM (inactive) | > 50 µM (inactive) | > 50 µM (inactive) | > 50 µM (inactive) | > 50 µM (inactive) | > 50 µM (inactive) | > 50 µM (inactive) | > 50 µM (inactive) | > 50 µM (inactive) | > 50 µM (inactive) | > 50 µM (inactive) |
